Assay [1] has as its target Cysteinyl leukotriene receptor (Cavia porcellus). Briefly: Compound is evaluated for its ability to inhibit [3H]LTD4 binding to Cysteinyl leukotriene D4 receptor in guinea pig lung membranes.
For assay [2], the system named is Cysteinyl leukotriene receptor (Cavia porcellus). Nature of the assay: In vitro ability to antagonize a leukotriene D4 induced contraction of guinea pig trachea.

Bounds are passed on as bounds.

A word on the Ki: it is a dissociation constant, usually derived from enzyme kinetics or from competition with a known ligand. A higher Ki goes with lower affinity. `CCCCCCCCCCc1ccccc1C(SCCC(=O)O)SCCC(=O)O` displayed a Ki in assay [1] of 1.18 µM. In assay [2], this compound gave a -Log KB of 6.5. The corresponding values for `CCCCCCCCCCCOc1ccccc1C(SCCC(=O)O)SCCC(=O)O` are 0.287 µM and 6.4. In the same order, the values of `CCCCCCCCCCCSc1ccccc1C(SCCC(=O)O)SCCC(=O)O` are 0.646 µM and 6.

`CCCc1c(OCCCCCOc2ccccc2C(SCCC(=O)O)SCCC(=O)O)ccc(C(C)=O)c1O` returned a Ki in assay [1] of 3.149 µM. Besides, in assay [2], the -Log KB was found to be 6.6.

Take `CCCCCCCCCCCOc1ccccc1C(C)(SCCC(=O)O)SCCC(=O)O`: the inhibitory constant (Ki) in assay [1] is above 20 µM. Moreover, in assay [2], the -Log KB was determined as 5.6. The compound `CCCCCCCCCCCCC(SCCC(=O)O)SCCC(=O)O` yielded a -Log KB in assay [2] of 5.2.

On to `CCCCCCCCCCCOc1ccc(O)cc1C(SCCC(=O)O)SCCC(=O)O`, for which the Ki in assay [1] stood at 0.156 µM. Moreover, the -Log KB in assay [2] was determined as 6. In assay [1], `CCCCCCCCCCCCc1ccccc1C(CCCC(=O)O)CCCC(=O)O` had a Ki of 2.337 µM. For the compound `CCCCCCCCCCC#CC(SCCC(=O)O)SCCC(=O)O`, the -Log KB in assay [2] was 6.1. `CCCCCCCCCCCOc1ccc(Br)cc1C(SCCC(=O)O)SCCC(=O)O`: the Ki in assay [1] was found to be 0.624 µM. The -Log KB in assay [2] was found to be 6. Turning to `CCCCCCCCC#CC(SCCC(=O)O)SCCC(=O)O`, the -Log KB in assay [2] is 5. The compound `CCOCCOCCOCCOc1ccccc1C(SCCC(=O)O)SCCC(=O)O` returned a Ki in assay [1] above 20 µM. The same measure, in the same setting: under `O=C(O)CCSC(SCCC(=O)O)c1ccccc1OCCCCCCCCCO` stands above 20 µM. Turning to `CCCCCCCCCOc1ccccc1C(SCCC(=O)O)SCCC(=O)O`, in assay [1], the Ki was 4.094 µM. Moreover, the -Log KB in assay [2] is 5.8. The corresponding values for `O=C(O)CCSC(SCCC(=O)O)c1cc(C(F)(F)F)ccc1CCCCCCCCc1ccccc1` are 0.476 µM and 7. With `CCCCCCCCCCC#CC(SCC(=O)O)SCC(=O)O`, the -Log KB in assay [2] was found to be 5.3. For `CCCCc1ccc(CCCCc2ccccc2C(SCCC(=O)O)SCCC(=O)O)cc1`, the Ki in assay [1] worked out at 4.228 µM. Besides, the -Log KB in assay [2] was 5.6. Turning to `CCCCCCCCCCCCc1ccccc1C1S[C@H](C(=O)O)[C@H](C(=O)O)S1` (stereo in doubt; 61), in assay [1], the Ki came out at 17.578 µM. Same read-out and setting: under `CCCCCCCCCCCCc1ccccc1C1S[C@@H](C(=O)O)[C@H](C(=O)O)S1` stands 0.401 µM; under `CCCCCCCCCC/C=C\c1ccccc1C(SCCC(=O)O)SCCC(=O)O`, 1.38 µM. The same measure, in the same setting: the same measure for `CCCCCCCCCCCCc1ccccc1C(SCCCC(=O)O)SCCCC(=O)O`: 0.934 µM; for `CCCCCCCCCCC[C@@H]1CCC(SCCC(=O)O)(SCCC(=O)O)c2ccccc21`: above 20 µM; for `CCCCCCCCCCc1ccc(C(SCCC(=O)O)SCCC(=O)O)cc1`: 7.565 µM.

In assay [1], `CCCCc1ccccc1C(SCCC(=O)O)SCCC(=O)O` had a Ki above 20 µM. The compound `CCCCCCCCCCCCc1ccccc1C(SCCC(=O)O)[S+]([O-])CCC(=O)O` (configuration not stated) showed an inhibition constant Ki in assay [1] of 0.423 µM. This compound gave a -Log KB in assay [2] of 5.8. As to `CCCCCCCCCCCCc1cccc(C)c1C(SCCC(=O)O)SCCC(=O)O`, the Ki in assay [1] was found to be 3.672 µM. The compound `CCCCCCCCCCC#CC(SCCCC(=O)O)SCCCC(=O)O` yielded a -Log KB in assay [2] of 5.6. For `CCCCCCCCCCCCc1ccccc1C(SCC(=O)O)SCC(=O)O`, the Ki in assay [1] worked out at 0.846 µM. This compound also displayed a -Log KB in assay [2] of 5.9.

Consider `CCCCCCCCCCCCCOc1ccc(C(SCCC(=O)O)SCCC(=O)O)cc1`, for which, in assay [1], the inhibition constant (Ki) is above 20 µM. Take `CCCCC/C=C/C/C=C/COc1cccc(C(SCCC(=O)O)SCCC(=O)O)c1`: in assay [1], the Ki was determined as 0.187 µM. Besides, the -Log KB in assay [2] came to 6.2.

On to `CCCCCCCCCCCCCOc1cccc(C(SCCC(=O)O)SCCC(=O)O)c1`, for which the Ki in assay [1] amounted to 0.53 µM. That is a sub-micromolar value. As to `CCCCCCCCCC/C=C/c1ccccc1C(SCCC(=O)O)SCCC(=O)O`, the Ki in assay [1] is 0.491 µM. Moreover, in assay [2], the -Log KB was 5.8. In assay [1], `CCCCC/C=C/C/C=C/COc1ccccc1C(SCCC(=O)O)SCCC(=O)O` returned a Ki of 1.002 µM. In assay [2], this compound yielded a -Log KB of 6.

In assay [1], `C#CCCCCCCCCCCc1ccccc1C(SCCC(=O)O)SCCC(=O)O` came in with a Ki of 0.141 µM. The -Log KB in assay [2] came to 6.8. On to `O=C(O)CCSC(SCCC(=O)O)c1ccccc1CCCCCCCCCCCC(F)(F)F`, for which the Ki in assay [1] is 0.147 µM. Besides, the -Log KB in assay [2] is 6.2. In the same order, the values of `CCCCCCCCCCCOc1cccc(C(SCCC(=O)O)SCCC(=O)O)c1` are 0.078 µM and 6.1.

On to `O=C(O)CCSC(SCCC(=O)O)c1cccc(CCCCCCCCc2ccccc2)c1`, for which, in assay [1], the Ki was determined as 0.43 µM. In assay [2], this compound had a -Log KB of 6. In assay [1], `CCCCCCCCCCCCCCc1ccccc1C(SCCC(=O)O)SCCC(=O)O` gave a Ki of 1.246 µM. The same measure, in the same setting: under `CCCCCCCCCCCOc1ccc(C(SCCC(=O)O)SCCC(=O)O)cc1` stands above 20 µM.

The compound `CCCCCCCCCCC#Cc1ccccc1C(SCCC(=O)O)SCCC(=O)O` returned a Ki in assay [1] of 2.515 µM. Further, the -Log KB in assay [2] amounted to 5.9. Turning to `CCCCCCCCCCCCC#CC(SCCC(=O)O)SCCC(=O)O`, the -Log KB in assay [2] was found to be 5.7. Regarding `O=C(O)CCSC(SCCC(=O)O)c1ccccc1OCCCC1CCCCC1`, the Ki in assay [1] is 1.009 µM.

As to `CCCCCCCCCOc1cccc(C(SCCC(=O)O)SCCC(=O)O)c1`, the Ki in assay [1] was determined as 0.624 µM. For the same compound, the -Log KB in assay [2] is 6. In the same order, the values of `O=C(O)CCSC(SCCC(=O)O)c1ccccc1OCCCCCCc1ccccc1` are 11.526 µM and 5.3. In the same order, the values of `CCCCCCCCCCCOc1ccc([N+](=O)[O-])cc1C(SCCC(=O)O)SCCC(=O)O` are 0.303 µM and 6.1. In the same order, the values of `O=C(O)CCSC(SCCC(=O)O)c1ccccc1CCCCCCCCC1CCCCC1` are 1.958 µM and 5.5. For `CCCCCCCCc1ccccc1C(SCCC(=O)O)SCCC(=O)O`, in assay [1], the Ki came to 5.674 µM. In assay [2], this compound had a -Log KB of 5.2. As to `CCCCCCCCCCC[C@@H]1CC(SCCC(=O)O)(SCCC(=O)O)c2ccccc21`, the Ki in assay [1] came to 2.092 µM. In the case of `CCCCCCCCCCCOc1ccc(OC)cc1C(SCCC(=O)O)SCCC(=O)O`, the Ki in assay [1] was 0.579 µM. In assay [2], the -Log KB worked out at 5.9. In the same order, the values of `CCCCCCCCCCCCc1ccccc1C(SCCC(=O)O)SCCC(=O)O` are 0.445 µM and 6.
